Bounds are passed on as bounds.

In the assay the target is T1, HPK1 (Homo sapiens, UniProt Q92918).
T1 construct: purchased Invitrogen
T1 sequence (Q92918 whole entry): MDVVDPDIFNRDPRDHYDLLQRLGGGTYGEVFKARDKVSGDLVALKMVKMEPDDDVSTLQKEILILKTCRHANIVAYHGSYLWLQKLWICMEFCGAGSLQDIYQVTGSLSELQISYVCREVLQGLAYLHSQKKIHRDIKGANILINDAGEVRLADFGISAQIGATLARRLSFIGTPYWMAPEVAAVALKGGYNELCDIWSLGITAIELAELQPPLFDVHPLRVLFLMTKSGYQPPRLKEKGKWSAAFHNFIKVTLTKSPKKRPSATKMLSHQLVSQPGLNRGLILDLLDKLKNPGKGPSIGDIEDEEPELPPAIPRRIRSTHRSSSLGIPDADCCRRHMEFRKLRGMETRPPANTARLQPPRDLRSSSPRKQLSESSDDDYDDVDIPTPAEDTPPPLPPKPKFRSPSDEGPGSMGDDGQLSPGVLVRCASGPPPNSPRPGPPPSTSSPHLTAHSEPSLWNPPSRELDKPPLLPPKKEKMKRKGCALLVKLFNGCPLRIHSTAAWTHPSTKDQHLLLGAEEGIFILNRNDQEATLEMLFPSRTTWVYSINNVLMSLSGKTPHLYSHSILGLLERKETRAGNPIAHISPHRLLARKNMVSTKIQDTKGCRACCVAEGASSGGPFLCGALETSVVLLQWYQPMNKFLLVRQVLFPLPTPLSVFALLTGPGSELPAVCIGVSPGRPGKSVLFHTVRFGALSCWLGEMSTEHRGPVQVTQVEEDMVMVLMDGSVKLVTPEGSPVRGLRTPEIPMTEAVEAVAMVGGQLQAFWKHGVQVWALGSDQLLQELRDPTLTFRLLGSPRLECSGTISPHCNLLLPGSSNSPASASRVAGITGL
The experiment in a line: HPK1 biochemical enzyme assay (microfluidic mobility shift assay). Particulars: 1000 uM (1 mM) ATP; Caliper mobility shift; 1.5 nM HPK1; 30 min preincubation; read-out: HPK1 1000UMATP caliper IC50. The protocol: Example 33. HPK1 Biochemical Enzyme Assay
HPK1 biochemical enzyme assay: HPK1 enzyme inhibition was measured using a microfluidic mobility shift assay. Reactions were performed in a 384-well plate, containing 1.5 nM HPK1 (Invitrogen), in assay buffer (Carna Biosciences; pH 7.4). Test compounds were titrated in ten point curves (top final assay concentration 3 μM), and preincubated with enzyme/substrate mix for 30 min prior to initiation of the reaction by addition of ATP (1 mM final concentration) and substrate (1 μM final concentration; Carna Biosciences) diluted in assay buffer supplemented by MgCl2 (final assay concentration of 5 mM). Following 60 min incubation at RT, the reaction was terminated by addition of 60 μl/well termination buffer (Carna Biosciences) and signal determination using a Caliper EZ Reader (Perkin Elmer, UK).
The compound numbers correspond to the compound numbers in Table 1. Compounds having an activity designated as “A” provided an IC50≤100 nM; compounds having an activity designated as “B” provided an IC50>100 nM and ≤1,000 nM; compounds having an activity designated as “C” provided an IC50>1,000 nM.
The IC50 is the concentration that inhibits the measured activity by half. Turning to `COc1cc(-c2cc(Nc3ccc(N4CCC(O)CC4)cn3)c3c(=O)[nH]ccc3n2)c(F)cc1CN1CCCCC1` [I-216, 2-[2-fluoro-5-methoxy-4-(1-piperidyl-methyl)phenyl]-4-[[5-(4-hydroxy-1-piperidyl)-2-pyridyl]amino]-6H-1,6-naphthyridin-5-one], the IC50 is more than 1000 nM.
Consider `CCOc1ccc(F)c(-c2cc(Nc3ccc(N4CCC(O)CC4)cn3)c3c(=O)[nH]ccc3n2)c1` [I-66, 2-(5-ethoxy-2-fluoro-phenyl)-4-[[5-(4-hydroxy-1-piperidyl)-2-pyridyl]amino]-6H-1,6-naphthyridin-5-one], for which the half-maximal inhibitory concentration (IC50) lay within 100 to 1000 nM.
The value for `O=C(Nc1ccc(-c2cc(Nc3ccc(N4CCC(F)(F)CC4)cn3)c3c(=O)[nH]ccc3n2)c(F)c1)C1CCCCC1` [I-172, N-[4-[4-[[5-(4,4-difluoro-1-piperidyl)-2-pyridyl]amino]-5-oxo-6H-1,6-naphthyridin-2-yl]-3-fluoro-phenyl] cyclohexane-carboxamide] was more than 1000 nM; that for `O=C(Nc1ccc(-c2cc(Nc3ccc(N4CCC(O)CC4)cn3)c3c(=O)[nH]ccc3n2)c(F)c1)[C@@H]1C[C@H]2CC[C@@H]1C2` (racemic) [I-266, (1R,2R,4S)-N-[3-fluoro-4-[4-[[5-(4-hydroxy-1-piperidyl)-2-pyridyl]amino]-5-oxo-6H-1,6-naphthyridin-2-yl]phenyl] norbornane-2-carboxamide] was not above 100 nM; that for `Cn1ccnc1N1CCN(c2cc(Nc3ccc(N4CCC(O)CC4)cn3)c3c(=O)[nH]ccc3n2)CC1` [I-271, 4-[[5-(4-hydroxy-1-piperidyl)-2-pyridyl]amino]-2-[4-(1-methyl-imidazol-2-yl)piperazin-1-yl]-6H-1,6-naphthyridin-5-one] was not above 100 nM.
The value for `O=c1[nH]ccc2nc(-c3cc(CN4CC5(COC5)C4)ccc3F)cc(Nc3ccc(N4CCC(O)CC4)cn3)c12` [I-250] was not above 100 nM; that for `O=c1[nH]ccc2nc(-c3ccc(OCc4ccncc4)cc3F)cc(Nc3ccc(N4CCC(O)CC4)cn3)c12` [I-61, 2-[2-fluoro-4-(4-pyridyl-methoxy)phenyl]-4-[[5-(4-hydroxy-1-piperidyl)-2-pyridyl]amino]-6H-1,6-naphthyridin-5-one] was 100 to 1000 nM; that for `O=c1[nH]ccc2nc(-c3ccccc3F)cc(Nc3ccc(N4CCC(O)CC4)cn3)c12` [I-64, 2-(2-fluoro-phenyl)-4-[[5-(4-hydroxy-1-piperidyl)-2-pyridyl]amino]-6H-1,6-naphthyridin-5-one] was 100 to 1000 nM.
In the case of `CC(C)c1ccc(Cl)c(-c2cc(Nc3ccc(N4CCC(O)CC4)cn3)c3c(=O)[nH]ccc3n2)c1` [I-101, 2-(2-chloro-5-isopropyl-phenyl)-4-[[5-(4-hydroxy-1-piperidyl)-2-pyridyl]amino]-6H-1,6-naphthyridin-5-one], the IC50 was not above 100 nM.
Regarding `COc1cc(-c2cc(Nc3ccc(N4CCN(C)CC4)cn3)c3c(=O)[nH]ccc3n2)c(F)cc1C(=O)N1CCCCC1` [I-193, 2-[2-fluoro-5-methoxy-4-(piperidine-1-carbonyl)phenyl]-4-[[5-(4-methyl-piperazin-1-yl)-2-pyridyl]amino]-6H-napthyridin-5-one], the half-maximal inhibitory concentration (IC50) lay within 100 to 1000 nM.
Take `COc1cc(-c2cc(Nc3ccc(N4CCNCC4)cn3)c3c(=O)[nH]ccc3n2)c(F)cc1NC(=O)C1CCCCC1` [I-208, N-[5-fluoro-2-methoxy-4-[5-oxo-4-[(5-piperazin-1-yl-2-pyridyl)amino]-6H-1,6-naphthyridin-2-yl]phenyl] cyclohexane carboxamide]: the IC50 lay in the range of 100 to 1000 nM.
For `O=c1[nH]ccc2nc(-c3ccc(CN4CCCCC4)cc3F)cc(Nc3ccc(N4CCC(O)CC4)cn3)c12` [I-127], the IC50 fell in the range of 100 to 1000 nM.
On to `CCC1(C(=O)Nc2ccc(-c3cc(Nc4ccc(N5CCNCC5)cn4)c4c(=O)[nH]ccc4n3)c(F)c2)CCC1` [I-240, 1-ethyl-N-[3-fluoro-4-[5-oxo-4-[(5-piperazin-1-yl-2-pyridyl)amino]-6H-1,6-naphthyridin-2-yl]phenyl] cyclobutane carboxamide], for which the IC50 lay in the range of 100 to 1000 nM.
Turning to `O=C(Nc1ccc(-c2cc(Nc3ccc(N4CCC(O)CC4)cn3)c3c(=O)[nH]ccc3n2)c(F)c1)C1CC2CCC1C2` (centres unmarked) [I-179, N-[3-fluoro-4-[4-[[5-(4-hydroxy-1-piperidyl)-2-pyridyl]amino]-5-oxo-6H-1,6-naphthyridin-2-yl]phenyl] norbornane-2-carboxamide], the half-inhibitory concentration (IC50) lay in the range of 100 to 1000 nM.
Consider `O=C(Nc1ccc(-c2cc(Nc3ccc(N4CCC(O)CC4)cn3)c3c(=O)[nH]ccc3n2)c(F)c1)C1CCCC1` [I-154, N-[3-fluoro-4-[4-[[5-(4-hydroxy-1-piperidyl)-2-pyridyl]amino]-5-oxo-6H-1,6-naphthyridin-2-yl]phenyl] cyclo-pentane carboxamide], for which the 50% inhibitory concentration (IC50) lay in the range of 100 to 1000 nM.
Then `O=C(c1ccc(-c2cc(Nc3ccc(N4CCC(O)CC4)cn3)c3c(=O)[nH]ccc3n2)c(F)c1)N1CC2C(C1)C2(F)F` (centres unmarked) [I-138, 2-[4-(6,6-difluoro-3-azabicyclo [3.1.0]hexane-3-carbonyl)-2-fluoro-phenyl]-4-[[5-(4-hydroxy-1-piperidyl)-2-pyridyl]amino]-6H-1,6-naphthyridin-5-one], with 100 to 1000 nM.
With `COc1cc(-c2cc(Nc3ccc(N4CCOCC4)cn3)c3c(=O)[nH]ccc3n2)c(F)cc1C(=O)N1CCCCC1` [I-164, 2-[2-fluoro-5-methoxy-4-(piperidine-1-carbonyl)phenyl]-4-[(5-morpholino-2-pyridyl)amino]-6H-1,6-naphthyridin-5-one], the half-maximal inhibitory concentration (IC50) is not above 100 nM.
With `CCOC(=O)C(C)(C)c1ccc(Nc2cc(-c3c(F)cccc3F)nc3cc[nH]c(=O)c23)nc1` [I-53, ethyl 2-[6-[[2-(2,6-difluoro-phenyl)-5-oxo-6H-1,6-naphthyridin-4-yl]amino]-3-pyridyl]-2-methyl-propanoate], the IC50 was not above 100 nM.
With `Cc1cc(-c2cc(Nc3ccc(N4CCC(O)CC4)cn3)c3c(=O)[nH]ccc3n2)c(F)cc1C(=O)N1CCCCC1` [I-114, 2-[2-fluoro-5-methyl-4-(piperidine-1-carbonyl)phenyl]-4-[[5-(4-hydroxy-1-piperidyl)-2-pyridyl]amino]-6H-1,6-naphthyridin-5-one], the IC50 is not above 100 nM.
Then `O=C(c1ccc(-c2cc(Nc3ccc(N4CCC(O)CC4)cn3)c3c(=O)[nH]ccc3n2)c(F)c1)N1CC2CCC(C1)O2` [I-142, 2-[2-fluoro-4-(8-oxa-3-azabicyclo [3.2.1]octane-3-carbonyl)phenyl]-4-[[5-(4-hydroxy-1-piperidyl)-2-pyridyl]amino]-6H-naphthyridin-5-one], with not above 100 nM.
The value for `O=C(c1ccc(F)c(-c2cc(Nc3ccc(N4CCC(O)CC4)cn3)c3c(=O)[nH]ccc3n2)c1)N1CCCC1` [I-93, 2-[2-fluoro-5-(pyrrolidine-1-carbonyl)phenyl]-4-[[5-(4-hydroxy-1-piperidyl)-2-pyridyl]amino]-6H-1,6-naphthyridin-5-one] was not above 100 nM.
Consider `O=C(O)c1c[nH]c(=O)c2c(Nc3ccc(N4CCC(O)CC4)cn3)cc(-c3c(F)cccc3F)nc12` [I-39, 2-(2,6-difluorophenyl)-4-[[5-(4-hydroxy-1-piperidyl)-2-pyridyl]amino]-5-oxo-6H-1,6-naphthyridine-8-carboxylic Acid], for which the IC50 is more than 1000 nM.
As for `CN(C(=O)C1(C)CC1)c1ccc(-c2cc(Nc3ccc(N4CCC(O)CC4)cn3)c3c(=O)[nH]ccc3n2)c(F)c1` [I-214, N-[3-fluoro-4-[4-[[5-(4-hydroxy-1-piperidyl)-2-pyridyl]amino]-5-oxo-6H-1,6-naphthyridin-2-yl]phenyl]-N,1-dimethyl-cyclopropane-carboxamide], the half-maximal inhibitory concentration (IC50) fell in the range of 100 to 1000 nM.
With `O=C(C1CC1)N1CCC2(CCN(c3cc(Nc4ccc(N5CCC(O)CC5)cn4)c4c(=O)[nH]ccc4n3)CC2)C1` [I-233, 2-[2-(cyclopropanecarbonyl)-2,8-diazaspiro[4.5]decan-8-yl]-4-[[5-(4-hydroxy-1-piperidyl)-2-pyridyl]amino]-6H-1,6-naphthyridin-5-one], the half-maximal inhibitory concentration (IC50) was not above 100 nM.
Consider `COc1cc(-c2cc(Nc3ccc(C4CCNCC4)cn3)c3c(=O)[nH]ccc3n2)c(F)cc1C(=O)N1CCCCC1` [I-245, 2-[2-fluoro-5-methoxy-4-(piperidine-1-carbonyl)phenyl]-4-[[5-(4-piperidyl)-2-pyridyl]amino]-6H-1,6-naphthyridin-5-one], for which the IC50 was not above 100 nM.
As to `COc1cc(-c2cc(Nc3ccc(N4CCNCC4)cn3)c3c(=O)[nH]ccc3n2)c(F)cc1C(=O)N1CCCCC1` [I-157], the concentration for half-maximal inhibition (IC50) was more than 1000 nM.
With `CN(C)Cc1ccc(F)c(-c2cc(Nc3ccc(N4CCC(O)CC4)cn3)c3c(=O)[nH]ccc3n2)c1` [I-117, 2-[5-[(dimethyl-amino)methyl]-2-fluoro-phenyl]-4-[[5-(4-hydroxy-1-piperidyl)-2-pyridyl]amino]-6H-1,6-naphthyridin-5-one], the half-maximal inhibitory concentration (IC50) was in the range of 100 to 1000 nM.
Then `CC(C)(O)c1cc(Nc2ccc(N3CCC(O)CC3)cn2)c2c(=O)[nH]ccc2n1` [I-38, 2-(1-hydroxy-1-methyl-ethyl)-4-[[5-(4-hydroxy-1-piperidyl)-2-pyridyl]amino]-6H-1,6-naphthyridin-5-one], with not above 100 nM; and `COc1cc(-c2cc(Nc3ccc(N4CCC(F)(F)CC4)cn3)c3c(=O)[nH]ccc3n2)c(F)cc1C(=O)N1CCCCC1` [I-169, 4-[[5-(4,4-difluoro-1-piperidyl)-2-pyridyl]amino]-2-[2-fluoro-5-methoxy-4-(piperidine-1-carbonyl)phenyl]-6H-1,6-naphthyridin-5-one], with 100 to 1000 nM.

(Values after patent publication US12252488B2 (Nimbus Saturn, Inc., priority 2021, dated 2025).)
